Values joined by “and” are separate entries in the source; they are usually repeats but may differ in a detail not shown here. Equal entries are not always repeated. Toxic doses and inconclusive results are not listed.
System: L1210 leukemia ip in BDF1 mice, survival T/C
Assay: NCI In Vivo Anticancer Drug Screen. Data for tumor model L1210 Leukemia (intraperitoneal) in B6D2F1 (BDF1) mice
Settings: endpoint: mean survival time, higher = longer survival
Method in brief: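 Survival endpoint. Drug-treated group vs vehicle group, expressed as T divided by C. Tumor passaged by transplantation.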

[1] = dose: 100.0 mg/kg/injection, schedule: Q01DX009 (ip), vehicle: saline with Tween-80
[2] = dose: 200.0 mg/kg/injection, schedule: Q01DX009 (ip), vehicle: saline with Tween-80
[3] = dose: 400.0 mg/kg/injection, schedule: Q04DX003 (ip), vehicle: Klucel (hydroxypropylcellulose) (HPC)
[4] = dose: 100.0 mg/kg/injection, schedule: Q01DX001 (ip), vehicle: saline
[5] = dose: 100.0 mg/kg/injection, schedule: Q01DX009 (ip), vehicle: Klucel (hydroxypropylcellulose) (HPC)
[6] = dose: 200.0 mg/kg/injection, schedule: Q01DX001 (ip), vehicle: saline
[7] = dose: 200.0 mg/kg/injection, schedule: Q01DX009 (ip), vehicle: Klucel (hydroxypropylcellulose) (HPC)
[8] = dose: 400.0 mg/kg/injection, schedule: Q01DX001 (ip), vehicle: saline
[9] = dose: 100.0 mg/kg/injection, schedule: Q04DX003 (ip), vehicle: Klucel (hydroxypropylcellulose) (HPC)
[10] = dose: 200.0 mg/kg/injection, schedule: Q04DX003 (ip), vehicle: Klucel (hydroxypropylcellulose) (HPC)

SMILES: Cc1ccc(C)c(NC(=O)Nc2ccccc2Cl)c1
- T/C (dose: 100.0 mg/kg/injection, schedule: Q01DX009 (ip), vehicle: gum acacia): 90 % of control
- T/C (dose: 100.0 mg/kg/injection, schedule: Q04DX003 (ip), vehicle: gum acacia): 93 % of control
- T/C (dose: 200.0 mg/kg/injection, schedule: Q01DX009 (ip), vehicle: gum acacia): 90 % of control
- T/C (dose: 200.0 mg/kg/injection, schedule: Q04DX003 (ip), vehicle: gum acacia): 91 % of control
- T/C (dose: 400.0 mg/kg/injection, schedule: Q01DX009 (ip), vehicle: gum acacia): 90 % of control
- T/C (dose: 400.0 mg/kg/injection, schedule: Q04DX003 (ip), vehicle: gum acacia): 94 % of control

SMILES: CCCCCCCCCCCCOC(=N)N1CCOCC1
- T/C (dose: 11.1 mg/kg/injection, schedule: Q01DX Z (ip), vehicle: saline): 102 % of control
- T/C (dose: 16.6 mg/kg/injection, schedule: Q01DX Z (ip), vehicle: saline): 102 % of control
- T/C (dose: 25.0 mg/kg/injection, schedule: Q01DX Z (ip), vehicle: saline): 98 % of control

SMILES: CC1(c2cccs2)C(=O)NC(=O)N1C(=O)CCl (stereo not drawn)
- T/C [1]: 109 % of control
- T/C (dose: 100.0 mg/kg/injection, schedule: Q04DX003 (ip), vehicle: saline with Tween-80): 103 % of control
- T/C [2]: 106 % of control
- T/C (dose: 200.0 mg/kg/injection, schedule: Q04DX003 (ip), vehicle: saline with Tween-80): 99 % of control

SMILES: COc1cccc(C(=O)O)c1O
- T/C (dose: 75.0 mg/kg/injection, schedule: Q01DX001 (ip), vehicle: acetone): 101 % of control
- T/C (dose: 150.0 mg/kg/injection, schedule: Q01DX001 (ip), vehicle: acetone): 98 % of control

SMILES: O=C(O)CCSc1nc2ccccc2s1
- T/C (dose: 75.0 mg/kg/injection, schedule: Q01DX009 (ip), vehicle: Klucel (hydroxypropylcellulose) (HPC)): 101 % of control
- T/C (dose: 150.0 mg/kg/injection, schedule: Q01DX009 (ip), vehicle: Klucel (hydroxypropylcellulose) (HPC)): 88 % of control
- T/C (dose: 300.0 mg/kg/injection, schedule: Q01DX009 (ip), vehicle: Klucel (hydroxypropylcellulose) (HPC)): 95 % of control
- T/C [3]: 94 % of control

SMILES: O=c1ccn(Cc2ccccc2)c(SCc2ccccc2)n1
- T/C (dose: 50.0 mg/kg/injection, schedule: Q01DX001 (ip), vehicle: saline): 105 % of control
- T/C (dose: 50.0 mg/kg/injection, schedule: Q01DX009 (ip), vehicle: Klucel (hydroxypropylcellulose) (HPC)): 102 % of control
- T/C [4]: 109 % of control
- T/C [5]: 95 % of control
- T/C [6]: 91 % of control
- T/C [7]: 98 % of control
- T/C [8]: 105 % of control

SMILES: CC12CC3CC(C1)CC(CC(N)=O)(C3)C2
- T/C (dose: 100.0 mg/kg/injection, schedule: Q04DX003 (ip), vehicle: saline): 98 % of control
- T/C (dose: 200.0 mg/kg/injection, schedule: Q04DX003 (ip), vehicle: saline): 103 % of control
- T/C (dose: 400.0 mg/kg/injection, schedule: Q04DX003 (ip), vehicle: saline): 98 % of control

SMILES: C[N+](C)(C)Cc1c(C(O)(c2ccccc2)c2ccccc2)ccc2ccccc12
- T/C (dose: 50.0 mg/kg/injection, schedule: Q01DX001 (ip), vehicle: carboxymethylcellulose (CMC)): 94 % of control
- T/C (dose: 100.0 mg/kg/injection, schedule: Q01DX001 (ip), vehicle: carboxymethylcellulose (CMC)): 96 % of control

SMILES: O=NN(CCCl)C(=O)Nc1ccc2ccccc2c1
- T/C (dose: 200.0 mg/kg/injection, schedule: Q01DX001 (ip), vehicle: carboxymethylcellulose (CMC)): 161 % of control
- T/C (dose: 300.0 mg/kg/injection, schedule: Q01DX001 (ip), vehicle: carboxymethylcellulose (CMC)): 172 % of control
- T/C (dose: 400.0 mg/kg/injection, schedule: Q01DX001 (ip), vehicle: carboxymethylcellulose (CMC)): 96 % of control

SMILES: N#CCc1cnc2ccccc2n1
- T/C (dose: 6.25 mg/kg/injection, schedule: Q01DX009 (ip), vehicle: saline with Tween-80): 96 % of control
- T/C (dose: 12.5 mg/kg/injection, schedule: Q01DX009 (ip), vehicle: saline with Tween-80): 98 % of control
- T/C (dose: 12.5 mg/kg/injection, schedule: Q04DX003 (ip), vehicle: saline with Tween-80): 94 % of control
- T/C (dose: 25.0 mg/kg/injection, schedule: Q01DX009 (ip), vehicle: saline with Tween-80): 101 % of control
- T/C (dose: 25.0 mg/kg/injection, schedule: Q04DX003 (ip), vehicle: saline with Tween-80): 96 % of control

SMILES: Cc1ccc([P+](=O)O)cc1Cl
- T/C [4]: 100 % of control
- T/C [6]: 93 % of control
- T/C [8]: 88 % of control

SMILES: O=C(Nc1ccc(C(=O)c2ccccc2)cc1)Nc1ccc(C(=O)c2ccccc2)cc1
- T/C (dose: 20.0 mg/kg/injection, schedule: Q01DX009 (ip), vehicle: saline with Tween-80): 95 % of control
- T/C (dose: 40.0 mg/kg/injection, schedule: Q01DX009 (ip), vehicle: saline with Tween-80): 87 % of control
- T/C (dose: 80.0 mg/kg/injection, schedule: Q01DX009 (ip), vehicle: saline with Tween-80): 90 % of control
- T/C (dose: 160.0 mg/kg/injection, schedule: Q01DX009 (ip), vehicle: saline with Tween-80): 91 % of control
- T/C (dose: 320.0 mg/kg/injection, schedule: Q01DX009 (ip), vehicle: saline with Tween-80): 93 % of control

SMILES: C1OC2CC3CC1C2C3 (stereo not drawn)
- T/C (dose: 10.0 mg/kg/injection, schedule: Q01DX001 (ip), vehicle: acetone): 107 % of control
- T/C (dose: 20.0 mg/kg/injection, schedule: Q01DX001 (ip), vehicle: acetone): 104 % of control
- T/C (dose: 40.0 mg/kg/injection, schedule: Q01DX001 (ip), vehicle: acetone): 98 % of control

SMILES: COC(=O)C1(C(=O)OC)C2CC=C(C)CC21 (stereo not drawn)
- T/C (dose: 100.0 mg/kg/injection, schedule: Q01DX009 (ip), vehicle: acetone): 100 % of control
- T/C (dose: 200.0 mg/kg/injection, schedule: Q01DX009 (ip), vehicle: acetone): 98 % of control
- T/C (dose: 400.0 mg/kg/injection, schedule: Q01DX009 (ip), vehicle: acetone): 90 % of control

SMILES: CCc1cccc2ccccc12
- T/C (dose: 50.0 mg/kg/injection, schedule: Q04DX003 (ip), vehicle: Klucel (hydroxypropylcellulose) (HPC)): 100 % of control
- T/C [5]: 90 % of control
- T/C [9]: 98 % of control
- T/C [7]: 92 % of control
- T/C [10]: 107 % of control
- T/C (dose: 400.0 mg/kg/injection, schedule: Q01DX009 (ip), vehicle: Klucel (hydroxypropylcellulose) (HPC)): 96 % of control
- T/C [3]: 96 % of control

SMILES: CCCN(C(=O)c1cccc([N+](=O)[O-])c1)C(c1ccco1)P(=O)(c1ccccc1)c1ccccc1 (stereo not drawn)
- T/C (dose: 50.0 mg/kg/injection, schedule: Q01DX001 (ip), vehicle: saline with Tween-80): 101 % of control
- T/C (dose: 100.0 mg/kg/injection, schedule: Q01DX001 (ip), vehicle: saline with Tween-80): 101 % of control
- T/C [1]: 100 % of control and 90 % of control
- T/C (dose: 100.0 mg/kg/injection, schedule: Q04DX002 (ip), vehicle: saline with Tween-80): 98 % of control
- T/C (dose: 200.0 mg/kg/injection, schedule: Q01DX001 (ip), vehicle: saline with Tween-80): 106 % of control
- T/C [2]: 87 % of control
- T/C (dose: 200.0 mg/kg/injection, schedule: Q04DX002 (ip), vehicle: saline with Tween-80): 102 % of control
- T/C (dose: 400.0 mg/kg/injection, schedule: Q04DX002 (ip), vehicle: saline with Tween-80): 93 % of control and 88 % of control

SMILES: COc1ccc(C(=O)Nc2cc(Cl)ccc2OC)cc1
- T/C (dose: 100.0 mg/kg/injection, schedule: Q01DX001 (ip), vehicle: other): 101 % of control
- T/C (dose: 100.0 mg/kg/injection, schedule: Q01DX009 (ip), vehicle: other): 98 % of control and 102 % of control
- T/C (dose: 100.0 mg/kg/injection, schedule: Q04DX002 (ip), vehicle: carboxymethylcellulose (CMC)): 93 % of control and 103 % of control
- T/C (dose: 100.0 mg/kg/injection, schedule: Q04DX003 (ip), vehicle: other): 97 % of control
- T/C (dose: 200.0 mg/kg/injection, schedule: Q01DX001 (ip), vehicle: other): 93 % of control
- T/C (dose: 200.0 mg/kg/injection, schedule: Q01DX009 (ip), vehicle: other): 100 % of control and 109 % of control
- T/C (dose: 200.0 mg/kg/injection, schedule: Q04DX002 (ip), vehicle: carboxymethylcellulose (CMC)): 96 % of control and 116 % of control
- T/C (dose: 200.0 mg/kg/injection, schedule: Q04DX003 (ip), vehicle: other): 106 % of control
- T/C (dose: 400.0 mg/kg/injection, schedule: Q01DX001 (ip), vehicle: other): 97 % of control
- T/C (dose: 400.0 mg/kg/injection, schedule: Q01DX009 (ip), vehicle: other): 94 % of control and 88 % of control
- T/C (dose: 400.0 mg/kg/injection, schedule: Q04DX002 (ip), vehicle: carboxymethylcellulose (CMC)): 103 % of control and 104 % of control
- T/C (dose: 400.0 mg/kg/injection, schedule: Q04DX003 (ip), vehicle: other): 105 % of control

SMILES: CCOC(=O)CCCCCCCCC(=O)Nc1ccc([N+](=O)[O-])cc1O
- T/C [9]: 103 % of control
- T/C [10]: 100 % of control
- T/C [3]: 101 % of control

From PubChem BioAssay AID248 (DTP/NCI, 2004)
